Legend:
Format in all cases: cell-based, Chinese hamster
[1] = system: cell line 25H9 (CHO cells that produce IL-1R-II protein); assay: Example 3: induction with 5-bromo-2′-deoxycytidine 5′-monophosphate, IL-1R-II production
Experimental: (§1) About 2×10^6 cells of cell line 25H9 were inoculated into 30 milliliters of serum-free medium and incubated at the temperatures indicated in Table 1 in vented shake flasks. At the times indicated in Table 1, samples were taken from each flask to determine IL-1R-II titer, cell number, and cell viability. IL-1R-II protein titer was determined by ELISA assay. Cell number was determined by counting cells in a hemocytometer. Cell viability was determined by trypan blue staining and counting stained cells in a hemocytometer. Cumulative viable cell density (CVCD) is the area under the curve of a plot of the viable cell density versus time (in units of cells/ml/day). Productivity (pg of IL-1R-II/cell/day) was determined by dividing the protein titer on a particular day by the CVCD on the same day. Cells were fed with amino acids on days 2 and 5, and dextrose was added periodically in order to maintain levels above 2.0 g/L. All samples were done in duplicate, and the data shown is an average value.
(§2) The following experiment compares the effects of 5-bromo-2′-deoxycytidine 5′-monophosphate and 5-aza-2′-deoxycytidine on induction of protein production. The experiment was done as described in Example 1 with the following exceptions. All cultures were incubated at 31° C., and cell number and viability were determined using a Guava PCA Cytometer (available from Guava Technologies, Hayward, Calif., USA). Samples were done in triplicate.

[2] = system: cell line 25H9 (CHO cells); assay: Example 3: cell number (Guava PCA Cytometer); details: 31° C.
Experimental: as §1, §2

[3] = system: cell line 25H9 (CHO cells that produce IL-1R-II protein); assay: Example 2: optimization of temperature and decitabine concentration, IL-1R-II production; details: 31° C., 0.5 mM butyrate
Experimental: as §1
(§3) To determine an optimum temperature and decitabine concentration, three temperatures (30° C., 31° C., and 32° C.) and three decitabine concentrations (10 μM, 15 μM, and 20 μM) were tested. A 31° C. culture containing 0.5 mM sodium butyrate was grown as a control. […] See e.g. International Application Nos. WO 89/06686 and WO 87/05626. The experiment was performed as in Example 1 except that the inducer concentrations, temperatures, and days at which data was collected are as indicated in Table 2 and FIG. 1.

[4] = Example 2: cell number and viability; details: Chinese hamster, 31° C., 0.5 mM butyrate
Experimental: as §1, §3

[5] = system: cell line 25H9 (CHO cells); assay: Example 2: cell number and viability; details: 31° C., 0.5 mM butyrate
Experimental: as §1, §3

SMILES: Nc1nc(=O)n([C@H]2C[C@H](O)[C@@H](COP(=O)(O)O)O2)cc1Br [5-bromo-2′-deoxycytidine 5′-monophosphate]
- effectiveness at inducing protein production relative to 5-aza-2′-deoxycytidine ([1]; 31° C.): about twice as effective
- inducing IL-1R-II production, 10 μM versus 5 μM or 15 μM ([1]; 31° C.): more effective than either 5 μM or 15 μM
- Titer of IL-1R-II ([1]; 31° C., 5 μM, day 0): 0.0 mg/L
- Productivity ([1]; 31° C., 5 μM, day 2): 12.4 pg of IL-1RII/cell/day
- Titer of IL-1R-II ([1]; 31° C., 5 μM, day 2): 67.6 mg/L
- Productivity ([1]; 31° C., 5 μM, day 5): 13.8 pg of IL-1RII/cell/day
- Titer of IL-1R-II ([1]; 31° C., 5 μM, day 5): 197.4 mg/L
- Productivity ([1]; 31° C., 5 μM, day 7): 14.9 pg of IL-1RII/cell/day
- Titer of IL-1R-II ([1]; 31° C., 5 μM, day 7): 289.1 mg/L
- Productivity ([1]; 31° C., 5 μM, day 9): 15.2 pg of IL-1RII/cell/day
- Titer of IL-1R-II ([1]; 31° C., 5 μM, day 9): 357.6 mg/L
- Titer of IL-1R-II ([1]; 31° C., 10 μM, day 0): 0.0 mg/L
- Productivity ([1]; 31° C., 10 μM, day 2): 13.4 pg of IL-1RII/cell/day
- Titer of IL-1R-II ([1]; 31° C., 10 μM, day 2): 75.0 mg/L
- Productivity ([1]; 31° C., 10 μM, day 5): 17.6 pg of IL-1RII/cell/day
- Titer of IL-1R-II ([1]; 31° C., 10 μM, day 5): 264.0 mg/L
- Productivity ([1]; 31° C., 10 μM, day 7): 19.2 pg of IL-1RII/cell/day
- Titer of IL-1R-II ([1]; 31° C., 10 μM, day 7): 401.4 mg/L
- Productivity ([1]; 31° C., 10 μM, day 9): 18.6 pg of IL-1RII/cell/day
- Titer of IL-1R-II ([1]; 31° C., 10 μM, day 9): 484.0 mg/L
- Titer of IL-1R-II ([1]; 31° C., 15 μM, day 0): 0.0 mg/L
- Productivity ([1]; 31° C., 15 μM, day 2): 11.4 pg of IL-1RII/cell/day
- Titer of IL-1R-II ([1]; 31° C., 15 μM, day 2): 61.4 mg/L
- Productivity ([1]; 31° C., 15 μM, day 5): 12.1 pg of IL-1RII/cell/day
- Titer of IL-1R-II ([1]; 31° C., 15 μM, day 5): 167.3 mg/L
- Productivity ([1]; 31° C., 15 μM, day 7): 13.4 pg of IL-1RII/cell/day
- Titer of IL-1R-II ([1]; 31° C., 15 μM, day 7): 249.1 mg/L
- Productivity ([1]; 31° C., 15 μM, day 9): 14.2 pg of IL-1RII/cell/day
- Titer of IL-1R-II ([1]; 31° C., 15 μM, day 9): 318.3 mg/L
- inducing IL-1R-II production, all three concentrations versus 10 μM 5-aza-2′-deoxycytidine ([1]; 31° C., 5, 10, 15 μM): more effective than 10 μM 5-aza-2′-deoxycytidine
- Cumulative Viable Cell Density ([2]; 5 μM, day 0): 0.0 10^6 cells/ml/day
- Viable Cell Density ([2]; 5 μM, day 0): 2.4 cells/ml × 10^6
- Cumulative Viable Cell Density ([2]; 5 μM, day 2): 5.5 10^6 cells/ml/day
- Viable Cell Density ([2]; 5 μM, day 2): 3.1 cells/ml × 10^6
- Cumulative Viable Cell Density ([2]; 5 μM, day 5): 14.3 10^6 cells/ml/day
- Viable Cell Density ([2]; 5 μM, day 5): 2.8 cells/ml × 10^6
- Cumulative Viable Cell Density ([2]; 5 μM, day 7): 19.4 10^6 cells/ml/day
- Viable Cell Density ([2]; 5 μM, day 7): 2.3 cells/ml × 10^6
- Cumulative Viable Cell Density ([2]; 5 μM, day 9): 23.5 10^6 cells/ml/day
- Viable Cell Density ([2]; 5 μM, day 9): 1.8 cells/ml × 10^6
- Cumulative Viable Cell Density ([2]; 10 μM, day 0): 0.0 10^6 cells/ml/day
- Viable Cell Density ([2]; 10 μM, day 0): 2.4 cells/ml × 10^6
- Cumulative Viable Cell Density ([2]; 10 μM, day 2): 5.6 10^6 cells/ml/day
- Viable Cell Density ([2]; 10 μM, day 2): 3.3 cells/ml × 10^6
- Cumulative Viable Cell Density ([2]; 10 μM, day 5): 15.0 10^6 cells/ml/day
- Viable Cell Density ([2]; 10 μM, day 5): 3.0 cells/ml × 10^6
- Cumulative Viable Cell Density ([2]; 10 μM, day 7): 20.9 10^6 cells/ml/day
- Viable Cell Density ([2]; 10 μM, day 7): 2.8 cells/ml × 10^6
- Cumulative Viable Cell Density ([2]; 10 μM, day 9): 26.0 10^6 cells/ml/day
- Viable Cell Density ([2]; 10 μM, day 9): 2.3 cells/ml × 10^6
- Cumulative Viable Cell Density ([2]; 15 μM, day 0): 0.0 10^6 cells/ml/day
- Viable Cell Density ([2]; 15 μM, day 0): 2.4 cells/ml × 10^6
- Cumulative Viable Cell Density ([2]; 15 μM, day 2): 5.4 10^6 cells/ml/day
- Viable Cell Density ([2]; 15 μM, day 2): 3.0 cells/ml × 10^6
- Cumulative Viable Cell Density ([2]; 15 μM, day 5): 13.8 10^6 cells/ml/day
- Viable Cell Density ([2]; 15 μM, day 5): 2.6 cells/ml × 10^6
- Cumulative Viable Cell Density ([2]; 15 μM, day 7): 18.6 10^6 cells/ml/day
- Viable Cell Density ([2]; 15 μM, day 7): 2.2 cells/ml × 10^6
- Cumulative Viable Cell Density ([2]; 15 μM, day 9): 22.4 10^6 cells/ml/day
- Viable Cell Density ([2]; 15 μM, day 9): 1.6 cells/ml × 10^6
- viable cell density versus 10 μM 5-aza-2′-deoxycytidine ([2]; all three concentrations tested): higher

SMILES: CCCC(=O)[O-].[Na+] [butyrate, sodium butyrate]
- IL1R-II Titer ([3]; day 0): 0.0 µg/mL
- IL1R-II Titer ([3]; day 3): 214.0 µg/mL
- Productivity ([3]; day 3): 23.9 pg IL-1R-II/cell/day
- IL1R-II Titer ([3]; day 6): 473.0 µg/mL
- Productivity ([3]; day 6): 22.6 pg IL-1R-II/cell/day
- IL1R-II Titer ([3]; day 8): 862.0 µg/mL
- Productivity ([3]; day 8): 29.8 pg IL-1R-II/cell/day
- viability at 0 day, 0.5 mM ([4]; day 0): 94.2%
- viability at 3 day, 0.5 mM ([4]; day 3): 91.7%
- viability at 6 day, 0.5 mM ([4]; day 6): 88.5%
- viability at 8 day, 0.5 mM ([4]; day 8): 71.1%
- Cumulative Viable Cell Density ([5]; day 0): 0 mL⁻¹ day⁻¹
- Viable Cell Density ([5]; day 0): 2e+06 mL⁻¹
- Cumulative Viable Cell Density ([5]; day 3): 8.9e+06 mL⁻¹ day⁻¹
- Viable Cell Density ([5]; day 3): 4e+06 mL⁻¹
- Cumulative Viable Cell Density ([5]; day 6): 2.09e+07 mL⁻¹ day⁻¹
- Viable Cell Density ([5]; day 6): 4e+06 mL⁻¹
- Cumulative Viable Cell Density ([5]; day 8): 2.89e+07 mL⁻¹ day⁻¹
- Viable Cell Density ([5]; day 8): 3.9e+06 mL⁻¹
